In patent US5446035A, “20-methyl-substituted vitamin D derivatives” (Schering Aktiengesellschaft, priority 1991, dated 1995):

Legend:
[1] = test system: HL-60 cells; experiment: induction of HL-60 cell differentiation to macrophages (NBT reduction); assay type: cell-based, human; settings: 96 hours incubation, formazan at 650 nm
Experimental: It is known in the literature (Mangelsdorf, D. J. et al., J. Cell. Biol. 98: 391-398 (1984)) that the treatment of human leukemia cells (promyelocyte cell line HL-60, available, e.g., from the ATCC, Rockville, Md.) in vitro with calcitriol induces the differentiation of the cells to macrophages.
HL-60 cells are cultivated in tissue culture medium (RPMI - 10% fetal calf serum) at 37° C. in an atmosphere of 5% CO2 in air.
For substance testing, the cells are centrifuged and 2.8×10^5 cells/ml are suspended in phenol red-free tissue culture medium. The test substances are dissolved in ethanol and diluted with tissue culture medium without phenol red to achieve the desired concentration. The diluted test substances are mixed with the cell suspension in a ratio of 1:10 and 100 μl each of this cell suspension mixed with substance is pipetted in a depression of a 96-hole plate. As a control, a cell suspension is prepared similarly, but only with the solvent. […]
To dissolve the formed intracellular formazan crystals, 100 μl of potassium hydroxide (2 mol/l) and 100 μl of dimethylsulfoxide are pipetted into each depression and ultrasonically irradiated for 1 minute. The concentration of formazan is spectrophotometrically measured at 650 nm.
As a measurement for the differentiation induction of HL 60 cells to macrophages, the concentration of formed formazan is determined. […]

[2] = test system: human peripheral blood mononuclear cells; experiment: PHA-stimulated lymphocyte proliferation ([3H]-thymidine incorporation); assay type: cell-based; settings: PBMC, PHA 5 μg/well, 96 hours after stimulation, read-out: concentration inhibiting lymphocyte proliferation by 50%
Experimental: At the time of seeding, cells were treated with phytohemagglutinin (PHA) 5 μg/well. The test compound was added at the same time as PHA in various concentration. Lymphocyte proliferation was determined 96 hours after stimulation by incorporation of [^3 H]-thymidine. For that, [^3 H]-thymidine (0.2 μCi/well) was added for the last 6 hours of culture, then medium and cells were filtrated through a glass fiber filter. Radioactivity of the filters were determined in a β-counter.

[3] = test system: IL-2 secretion, human peripheral blood mononuclear cells; experiment: IL-2 secretion by PHA-stimulated lymphocytes (ELISA); assay type: cell-based; settings: compared with calcitriol; PHA 20 μg/well, 24 hours
Experimental: For determination of IL-2 secretion, human peripheral blood mononuclear cells were prepared as above, seeded at a density of 2×10^6 cells/well×200 μl into 24-well-plates and cultured in RPMI 1640 in the presence of 2% fetal calf serum. At the time of seeding, PHA (20 μg/well) and the test compound was added. 24 hours after stimulation, cell cultures were harvested, medium separated from cells by centrifugation, and IL-2 concentration in the medium determined by an ELISA based on a polyclonal antibody IL-2.

SMILES	relative activity in inducing differentiation: ED50 test substance/ED50 calcitriol [1]	IC50 [2] [nM]	concentration range at which inhibition of IL-2 secretion starts [3]
C=C1/C(=C\C=C2/CCC[C@]3(C)[C@@H](C(C)(C)/C=C/C=C/C(C)(C)O)CC[C@@H]23)C[C@@H](O)C[C@@H]1O [1(S),3(R)-Dihydroxy-20-(5-hydroxy-5-methyl-hexa-1E,3E-dien-1-yl)-20-methyl-9,10-secopregna-5Z,7E,10(19)-triene]	~0.001		
C=C1/C(=C\C=C2/CCC[C@]3(C)[C@@H]([C@H](C)CCCC(C)(C)O)CC[C@@H]23)C[C@@H](O)C[C@@H]1O [1,25-dihydroxy-vitamin D3, 1α,25-dihydroxycholecalciferol, reference compound]		0.44	
C=C1/C(=C\C=C2/CCC[C@]3(C)[C@@H](C(C)(C)CC=CC(C)(C)O)CC[C@@H]23)C[C@@H](O)C[C@@H]1O [ZK 157202, 1α,25-dihydroxy-20-methyl-23,24-dehydrovitamin D3]		0.013	about the same as for calcitriol
